Key:
[1] = system: RRE; assay: Displacement assay using X2S; assay type: binding, HIV-1
Description: In this Example, X2S was used to measure a binding affinity between a test substance and RRE. As the test substance, Rev protein (supplied by Professor Takashi MORII, Graduates School of Energy Science, Kyoto University), aminoglycoside antibiotic neomycin (available from Sigma-Aldrich, product number; N-1876) (hereinafter, simply referred to as “neomycin”), and thrombin (available from Bachem, product number; AG H-8550) were used. […] The structure of Rev protein is shown in FIG. 9, and the amino acid sequence of Rev protein is shown in SEQ ID NO: 5. FIG. 9 is a view schematically illustrating the structure of Rev protein. Further, the structure of thrombin is shown in FIG. 10, and the amino acid sequence of thrombin is shown in SEQ ID NO: 6. FIG. 10 is a view schematically illustrating the structure of thrombin.
Firstly, in the same manner as in Example 3, X2S and RRE were dissolved in a cacodylate buffer solution (sodium cacodylate: 10 mM, pH 7.0; NaCl: 100 mM) each at 2 μM. Thus, an X2S-RRE solution was prepared.
To the X2S-RRE solution, Rev protein was added in steps at 0 μM, 0.4 μM, 0.8 μM, 1.2 μM, 1.6 μM, 2.0 μM, 2.4 μM, 2.8 μM, 3.2 μM, 3.6 μM, and 4.0 μM. Further, a fluorescence intensity was measured at each concentration. Similarly, to the X2S-RRE solution, neomycin was added in steps at 0 μM, 0.4 μM, 0.8 μM, 1.2 μM, 1.6 μM, 2.0 μM, 2.4 μM, 2.8 μM, 3.2 μM, 3.6 μM, and 4.0 μM. Further, a fluorescence intensity was measured at each concentration. Similarly, to the X2S-RRE solution, thrombin was added in steps at 0 μM, 0.4 μM, 0.8 μM, 1.2 μM, 1.6 μM, 2.0 μM, 2.4 μM, 2.8 μM, 3.2 μM, 3.6 μM, and 4.0 μM. Further, a fluorescence intensity was measured at each concentration. The fluorescence intensities were measured in the same manner as that described in Example 2.
FIG. 11 is a view illustrating a result of the measurement of a binding affinity between Rev protein and RRE; FIG. 12 is a view illustrating a result of the measurement of a binding affinity between neomycin and RRE; and FIG. 13 is a view illustrating a result of the measurement of a binding affinity between thrombin and RRE. In each of FIGS. 11 to 13, the horizontal axis represents the fluorescence wavelength, whereas the vertical axis represents the fluorescence intensity. […] Furthermore, along the direction of the arrow extending from the curved line at the bottom, the curved lines are arranged in order of increasing amount of the test substance which was added.
FIG. 14 is a view plotting the fluorescence intensities at a fluorescence wavelength of 453 nm shown in the results illustrated in FIGS. 11 to 13. The horizontal axis represents the concentration of each test substance, whereas the vertical axis represents the fluorescence intensity. In FIG. 14, the circle marks represent the result obtained in the case involving use of Rev protein, the square marks represent the result obtained in the case involving use of neomycin, and the triangle marks represent the result obtained in the case involving use of thrombin.
A displacement assay using X2S was performed in the same manner as that described in Example 5, except that, in this Example, fluorescence was measured also when Rev protein was added at concentrations of 4.4 μM and 4.8 μM.
FIG. 16 is a view illustrating the result of the displacement assay using X2S. The horizontal axis represents the fluorescence wavelength, whereas the vertical axis represents the fluorescence intensity.

[2] = system: single strand RNA (ssRNA), SEQ ID NO: 7; assay: Binding between X2S and single strand RNA
Description: In this Example, binding between X2S and a single strand RNA (hereinafter, referred to as “ssRNA”) was evaluated. Specifically, the evaluation was performed in the same manner as that described in Example 2. However, the evaluation performed in this Example differed from that performed in Example 2 in the following points: Instead of the double strand RNA, an ssRNA was used; The ssRNA was added in steps at 0 μM, 1 μM, 2 μM, 3 μM, 4 μM, 5 μM, 6 μM, 7 μM, and 8 μM; The ssRNA was purchased from: Hokkaido System Science Co., Ltd. The sequence of the ssRNA is shown in SEQ ID NO: 7.
FIG. 18 is a view illustrating the result of the evaluation of binding between X2S and the ssRNA. The horizontal axis represents the fluorescence wavelength, whereas the vertical axis represents the fluorescence intensity.

NCCOc1ccc2oc3ccc(OCCN)cc3c(=O)c2c1 [X2S, 2,7-bis(2-aminoethoxy)xanthen-9-one]
change in the fluorescence intensity, X2S compared with ethidium bromide ([1]; FIG. 11 compared with FIG. 15): greater in the case involving use of X2S than in the case involving use of ethidium bromide | concentration at which a change in fluorescence intensity was still clearly observed ([1]; Rev protein up to 4.8 μM): 3.2 µM | ultimate increase of fluorescence intensity ([1]; Rev protein up to 4.8 μM): approximately 80% | amount of change of fluorescence intensity ([2]; 0 μM versus 8 μM ssRNA): approximately 50% | binding to ssRNA ([2]; ssRNA 0-8 μM): binds to an ssRNA

Reference: patent US8741659B2, “Composition for measuring the binding affinity between nucleic acid and test substance, and use thereof” (Osaka University, priority 2007, dated 2014)
